# From PubChem BioAssay AID1963965 (Molecular Pharmacology Branch, DTP, NCI, 2024)
# Test system: 996289-038-R-J1-PDC spheroid viability
# Test: Anticancer human tumor 996289-038-R-J1-PDC patient-derived colon adenocarcinoma cell line growth inhibition [PI3K]
# Settings: spheroids with HUVEC and MSC; for IC50: curve of first compound; for viability, T/C: stronger effect = lower value
# How it was run: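 Spheroid viability read-out. Co-cultures contained the tumor line plus HUVEC and human MSCs. Each agent was paired with a PI3K inhibitor (inavolisib, alpelisib, duvelisib, copanlisib) across half-log dilutions starting at clinical Cmax, or at 10 microM when Cmax was unknown.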
# [1] = second compound 0.0316 µM, first compound 0.0316 µM
# [2] = second compound 0.0316 µM, first compound 0.1 µM
# [3] = second compound 0.0316 µM, first compound 0.316 µM
# [4] = second compound 0.0316 µM, first compound 1 µM
# [5] = second compound 0.0316 µM, first compound 3.16 µM
# [6] = second compound 0.0316 µM, first compound 10 µM
# [7] = second compound 0.1 µM, first compound 0.0316 µM
# [8] = second compound 0.1 µM, first compound 0.1 µM
# [9] = second compound 0.1 µM, first compound 0.316 µM
# [10] = second compound 0.1 µM, first compound 1 µM
# [11] = second compound 0.1 µM, first compound 3.16 µM
# [12] = second compound 0.1 µM, first compound 10 µM
# [13] = second compound 0.316 µM, first compound 0.0316 µM
# [14] = second compound 0.316 µM, first compound 0.1 µM
# [15] = second compound 0.316 µM, first compound 0.316 µM
# [16] = second compound 0.316 µM, first compound 1 µM
# [17] = second compound 0.316 µM, first compound 3.16 µM
# [18] = second compound 0.316 µM, first compound 10 µM
# [19] = second compound 1 µM, first compound 0.0316 µM
# [20] = second compound 1 µM, first compound 0.1 µM
# [21] = second compound 1 µM, first compound 0.316 µM
# [22] = second compound 1 µM, first compound 1 µM
# [23] = second compound 1 µM, first compound 3.16 µM
# [24] = second compound 1 µM, first compound 10 µM
# [25] = second compound 3.16 µM, first compound 0.0316 µM
# [26] = second compound 3.16 µM, first compound 0.1 µM
# [27] = second compound 3.16 µM, first compound 0.316 µM
# [28] = second compound 3.16 µM, first compound 1 µM
# [29] = second compound 3.16 µM, first compound 3.16 µM
# [30] = second compound 3.16 µM, first compound 10 µM
# [31] = second compound 10 µM, first compound 0.0316 µM
# [32] = second compound 10 µM, first compound 0.1 µM
# [33] = second compound 10 µM, first compound 0.316 µM
# [34] = second compound 10 µM, first compound 1 µM
# [35] = second compound 10 µM, first compound 3.16 µM
# [36] = second compound 10 µM, first compound 10 µM
# [37] = second compound 0.0316 µM, first compound 0.00316 µM
# [38] = second compound 0.0316 µM, first compound 0.01 µM
# [39] = second compound 0.1 µM, first compound 0.00316 µM
# [40] = second compound 0.1 µM, first compound 0.01 µM
# [41] = second compound 0.316 µM, first compound 0.00316 µM
# [42] = second compound 0.316 µM, first compound 0.01 µM
# [43] = second compound 1 µM, first compound 0.00316 µM
# [44] = second compound 1 µM, first compound 0.01 µM
# [45] = second compound 3.16 µM, first compound 0.00316 µM
# [46] = second compound 3.16 µM, first compound 0.01 µM
# [47] = second compound 10 µM, first compound 0.00316 µM
# [48] = second compound 10 µM, first compound 0.01 µM
# 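Note: spheroids exposed to compounds for seven days before viability read.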
# 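Throughout, for viability, T/C: luminescence used as a proxy for viable cell amount; percent viability relative to DMSO vehicle control as 100%.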
compound,measurement,setting,value
CC(C)NCC(C(=O)N1CCN(c2ncnc3c2C(C)CC3O)CC1)c1ccc(Cl)cc1 (stereo not drawn) + Cc1nc(NC(=O)N2CCCC2C(N)=O)sc1-c1ccnc(C(C)(C)C(F)(F)F)c1,IC50,second compound 0.0316 µM,> 10 µM
same,IC50,second compound 0.1 µM,> 10 µM
same,IC50,second compound 0.316 µM,> 10 µM
same,IC50,second compound 1 µM,> 10 µM
same,IC50,second compound 3.16 µM,5.06 µM
same,IC50,second compound 10 µM,< 0.0316 µM
same,"viability, T/C",[1],82.8%
same,"viability, T/C",[2],92.3%
same,"viability, T/C",[3],85.9%
same,"viability, T/C",[4],97.7%
same,"viability, T/C",[5],85.2%
same,"viability, T/C",[6],66.7%
same,"viability, T/C",[7],82.4%
same,"viability, T/C",[8],81%
same,"viability, T/C",[9],97.9%
same,"viability, T/C",[10],82.1%
same,"viability, T/C",[11],82.1%
same,"viability, T/C",[12],66.2%
same,"viability, T/C",[13],76.5%
same,"viability, T/C",[14],88.8%
same,"viability, T/C",[15],81.7%
same,"viability, T/C",[16],69.2%
same,"viability, T/C",[17],78.4%
same,"viability, T/C",[18],54.5%
same,"viability, T/C",[19],68.7%
same,"viability, T/C",[20],60.7%
same,"viability, T/C",[21],67.8%
same,"viability, T/C",[22],69.5%
same,"viability, T/C",[23],59.5%
same,"viability, T/C",[24],51%
same,"viability, T/C",[25],61%
same,"viability, T/C",[26],60%
same,"viability, T/C",[27],60.7%
same,"viability, T/C",[28],59.1%
same,"viability, T/C",[29],57%
same,"viability, T/C",[30],40.1%
same,"viability, T/C",[31],45.7%
same,"viability, T/C",[32],35.9%
same,"viability, T/C",[33],43.5%
same,"viability, T/C",[34],45.9%
same,"viability, T/C",[35],34.3%
same,"viability, T/C",[36],28.2%
CCN1CCN(Cc2ccc(Nc3ncc(F)c(-c4cc(F)c5nc(C)n(C(C)C)c5c4)n3)nc2)CC1 + Cc1nc(NC(=O)N2CCCC2C(N)=O)sc1-c1ccnc(C(C)(C)C(F)(F)F)c1,IC50,second compound 0.0316 µM,> 1 µM
same,IC50,second compound 0.1 µM,> 1 µM
same,IC50,second compound 0.316 µM,> 1 µM
same,IC50,second compound 1 µM,> 1 µM
same,IC50,second compound 3.16 µM,0.0376 µM
same,IC50,second compound 10 µM,< 0.00316 µM
same,"viability, T/C",[37],84.2%
same,"viability, T/C",[38],72%
same,"viability, T/C",[1],83.4%
same,"viability, T/C",[2],78.7%
same,"viability, T/C",[3],72.7%
same,"viability, T/C",[4],79.7%
same,"viability, T/C",[39],89.8%
same,"viability, T/C",[40],83%
same,"viability, T/C",[7],79.7%
same,"viability, T/C",[8],75.4%
same,"viability, T/C",[9],75.2%
same,"viability, T/C",[10],67.3%
same,"viability, T/C",[41],85.9%
same,"viability, T/C",[42],74.4%
same,"viability, T/C",[13],70.7%
same,"viability, T/C",[14],63%
same,"viability, T/C",[15],63.1%
same,"viability, T/C",[16],59.2%
same,"viability, T/C",[43],75.8%
same,"viability, T/C",[44],74.2%
same,"viability, T/C",[19],56.7%
same,"viability, T/C",[20],54.8%
same,"viability, T/C",[21],58.4%
same,"viability, T/C",[22],50.9%
same,"viability, T/C",[45],51.4%
same,"viability, T/C",[46],56.2%
same,"viability, T/C",[25],51.4%
same,"viability, T/C",[26],46.1%
same,"viability, T/C",[27],43.7%
same,"viability, T/C",[28],44.2%
same,"viability, T/C",[47],37.5%
same,"viability, T/C",[48],40%
same,"viability, T/C",[31],33.9%
same,"viability, T/C",[32],33.6%
same,"viability, T/C",[33],29.6%
same,"viability, T/C",[34],27.9%
Cn1ncc(Cl)c1-c1cc(C(=O)NC(CN)Cc2cccc(F)c2)sc1Cl (stereo not drawn) + Cc1nc(NC(=O)N2CCCC2C(N)=O)sc1-c1ccnc(C(C)(C)C(F)(F)F)c1,IC50,second compound 0.0316 µM,9.68 µM
same,IC50,second compound 0.1 µM,4.61 µM
same,IC50,second compound 0.316 µM,2.74 µM
same,IC50,second compound 1 µM,1.39 µM
same,IC50,second compound 3.16 µM,0.659 µM
same,IC50,second compound 10 µM,< 0.0316 µM
same,"viability, T/C",[1],76.9%
same,"viability, T/C",[2],91.2%
same,"viability, T/C",[3],78.2%
same,"viability, T/C",[4],63.9%
same,"viability, T/C",[5],60%
same,"viability, T/C",[6],47.6%
same,"viability, T/C",[7],89.2%
same,"viability, T/C",[8],80.3%
same,"viability, T/C",[9],78.5%
same,"viability, T/C",[10],56%
same,"viability, T/C",[11],55.9%
same,"viability, T/C",[12],45.1%
same,"viability, T/C",[13],75.2%
same,"viability, T/C",[14],87.5%
same,"viability, T/C",[15],67.1%
same,"viability, T/C",[16],58%
same,"viability, T/C",[17],51.9%
same,"viability, T/C",[18],31.5%
same,"viability, T/C",[19],82.4%
same,"viability, T/C",[20],71.8%
same,"viability, T/C",[21],63.4%
same,"viability, T/C",[22],53.9%
same,"viability, T/C",[23],42.4%
same,"viability, T/C",[24],31.7%
same,"viability, T/C",[25],61%
same,"viability, T/C",[26],63.6%
same,"viability, T/C",[27],59.2%
same,"viability, T/C",[28],43.4%
same,"viability, T/C",[29],34.5%
same,"viability, T/C",[30],24.9%
same,"viability, T/C",[31],34.8%
same,"viability, T/C",[32],36.4%
same,"viability, T/C",[33],41.6%
same,"viability, T/C",[34],35.5%
same,"viability, T/C",[35],27.3%
same,"viability, T/C",[36],16.2%
Cn1ncnc1[C@H]1c2n[nH]c(=O)c3cc(F)cc(c23)N[C@@H]1c1ccc(F)cc1 + Cc1nc(NC(=O)N2CCCC2C(N)=O)sc1-c1ccnc(C(C)(C)C(F)(F)F)c1,IC50,second compound 0.0316 µM,> 0.1 µM
same,IC50,second compound 0.1 µM,> 0.1 µM
same,IC50,second compound 0.316 µM,> 0.1 µM
same,IC50,second compound 1 µM,> 0.1 µM
same,IC50,second compound 3.16 µM,> 0.1 µM
same,IC50,second compound 10 µM,< 0.000316 µM
same,"viability, T/C","second compound 0.0316 µM, first compound 0.000316 µM",120%
same,"viability, T/C","second compound 0.0316 µM, first compound 0.001 µM",117%
same,"viability, T/C",[37],97.9%
same,"viability, T/C",[38],90.3%
same,"viability, T/C",[1],99.9%
same,"viability, T/C",[2],99%
same,"viability, T/C","second compound 0.1 µM, first compound 0.000316 µM",113%
same,"viability, T/C","second compound 0.1 µM, first compound 0.001 µM",101%
same,"viability, T/C",[39],79.5%
same,"viability, T/C",[40],84.9%
same,"viability, T/C",[7],91.2%
same,"viability, T/C",[8],83.2%
same,"viability, T/C","second compound 0.316 µM, first compound 0.000316 µM",88.3%
same,"viability, T/C","second compound 0.316 µM, first compound 0.001 µM",85%
same,"viability, T/C",[41],84.1%
same,"viability, T/C",[42],89.8%
same,"viability, T/C",[13],90.8%
same,"viability, T/C",[14],77.3%
same,"viability, T/C","second compound 1 µM, first compound 0.000316 µM",76.6%
same,"viability, T/C","second compound 1 µM, first compound 0.001 µM",70.9%
same,"viability, T/C",[43],78.5%
same,"viability, T/C",[44],77.9%
same,"viability, T/C",[19],76.7%
same,"viability, T/C",[20],68.3%
same,"viability, T/C","second compound 3.16 µM, first compound 0.000316 µM",53.7%
same,"viability, T/C","second compound 3.16 µM, first compound 0.001 µM",69.4%
same,"viability, T/C",[45],64%
same,"viability, T/C",[46],61.1%
same,"viability, T/C",[25],62%
same,"viability, T/C",[26],58.4%
same,"viability, T/C","second compound 10 µM, first compound 0.000316 µM",42.5%
same,"viability, T/C","second compound 10 µM, first compound 0.001 µM",51.5%
same,"viability, T/C",[47],49.5%
same,"viability, T/C",[48],44.2%
same,"viability, T/C",[31],55.1%
same,"viability, T/C",[32],40.8%
